Measured values published in DBAASP.
≈ marks a conversion by molar mass, not a printed value. Blank lines part the entries; values can stand above or below the compound they belong to.

Legend:
Assay in all cases: ≥ marks a high value that may be exact or a test limit, other limits are often not marked, values filed in µg/mL are converted to µM
[1] = system: Escherichia coli DH5alpha
[2] = system: Pseudomonas aeruginosa NBRC 13275
[3] = system: Staphylococcus epidermidis NBRC 12298
[4] = system: Staphylococcus aureus NBRC 13276
[5] = system: Bacillus subtilis CMCC 63501
[6] = system: Escherichia coli 078
[7] = system: Staphylococcus aureus ATCC 25923
[8] = system: Escherichia coli ATCC 25922
[9] = system: Escherichia coli K88
[10] = system: Staphylococcus aureus ATCC 29213
[11] = system: Enterococcus faecalis ATCC 29212
[12] = system: Salmonella enterica subsp. enterica serovar Typhimurium C77-31
[13] = system: Escherichia coli
[14] = system: Salmonella enterica subsp. enterica serovar Pullorum C79-13
[15] = system: Salmonella enterica subsp. enterica serovar Typhimurium ATCC 14028
[16] = system: Pseudomonas aeruginosa 25349
[17] = system: Staphylococcus aureus
[18] = system: Escherichia coli UB1005
[19] = system: Escherichia coli K99
[20] = system: Staphylococcus epidermidis ATCC 12228
[21] = system: Acinetobacter baumannii
[22] = system: Candida parapsilosis ATCC 22019
[23] = system: Candida albicans ATCC 24433
[24] = system: Trichophyton rubrum ATCC 28189
[25] = system: Franconibacter helveticus DSM 18390
[26] = system: Bacillus subtilis DSM 347
[27] = system: Staphylococcus xylosus DSM 20287
[28] = system: Escherichia coli DSM 1116
[29] = system: Pseudomonas aeruginosa ATCC 9027
[30] = system: Staphylococcus aureus P1389
[31] = system: Micrococcus luteus AB93113
[32] = system: Escherichia coli AB94012
[33] = system: Staphylococcus aureus AB208193
[34] = system: Staphylococcus epidermidis AB208188
[35] = system: Bacillus thuringiensis AB92037
[36] = system: Staphylococcus aureus P1381
[37] = system: Staphylococcus epidermidis AB208187
[38] = system: Staphylococcus aureus ATCC 6538
[39] = system: Bacillus subtilis AB91021
[40] = system: Staphylococcus aureus P1374
[41] = system: Escherichia coli BL21AI
[42] = system: Micrococcus luteus DSM 1790
[43] = system: Escherichia coli K-12
[44] = system: Pseudomonas aeruginosa PAO1
[45] = system: Pseudomonas aeruginosa PA330
[46] = system: Pseudomonas aeruginosa PA380
[47] = system: Pseudomonas aeruginosa PA214

MIC [1]: 3.12 µM (≈ 5.73 µg/mL) | MIC [2]: 3.12 µM (≈ 5.73 µg/mL) | MIC [3]: 12.5 µM (≈ 22.9 µg/mL) | MIC [4]: ≥ 50 µM
SMILES: CC[C@H](C)[C@H](NC(=O)CN)C(=O)NCC(=O)N[C@@H](CCCCN)C(=O)N[C@@H](Cc1ccccc1)C(=O)N[C@@H](CC(C)C)C(=O)N[C@@H](Cc1cnc[nH]1)C(=O)N[C@@H](CO)C(=O)N[C@@H](C)C(=O)N[C@@H](CCCCN)C(=O)N[C@@H](CCCCN)C(=O)N[C@@H](Cc1ccccc1)C(=O)NCC(=O)N[C@@H](CCCCN)C(=O)N[C@@H](C)C(=O)N[C@@H](Cc1ccccc1)C(=O)N[C@H](C(N)=O)C(C)C [GIGKFLHSAKKFGKAFV]

MIC [5]: 1 µM (≈ 1.54 µg/mL) | MIC [6]: 2 µM (≈ 3.08 µg/mL) | MIC [7]: 2 µM (≈ 3.08 µg/mL) | MIC [8]: 2 µM (≈ 3.08 µg/mL) | MIC [9]: 1 µM (≈ 1.54 µg/mL) | MIC [10]: 4 µM (≈ 6.16 µg/mL) | MIC [11]: 4 µM (≈ 6.16 µg/mL) | MIC [12]: 4 µM (≈ 6.16 µg/mL) | MIC [13]: 2 µM (≈ 3.08 µg/mL) | MIC [14]: 1 µM (≈ 1.54 µg/mL) | MIC [15]: 2 µM (≈ 3.08 µg/mL) | MIC [16]: 4 µM (≈ 6.16 µg/mL) | MIC [17]: 2 µM (≈ 3.08 µg/mL) | MIC [18]: 1 µM (≈ 1.54 µg/mL) | MIC [19]: 2 µM (≈ 3.08 µg/mL) | MIC [20]: 4 µM (≈ 6.16 µg/mL) | MIC [21]: 2 µM (≈ 3.08 µg/mL)
SMILES: CC[C@H](C)[C@H](NC(=O)[C@H](Cc1c[nH]c2ccccc12)NC(=O)[C@H](CCCCN)NC(=O)[C@H](CC(C)C)NC(=O)[C@@H](NC(=O)[C@H](CCCCN)NC(=O)CNC(=O)[C@@H](NC(=O)[C@H](CCCCN)NC(=O)[C@H](Cc1c[nH]c2ccccc12)NC(=O)[C@H](CC(C)C)NC(=O)[C@@H](N)CCCN=C(N)N)[C@@H](C)CC)C(C)C)C(N)=O [RLWKIGKVLKWI]

MIC [22]: ≥ 266 µM | MIC [13]: > 266 µM | MIC [23]: ≥ 266 µM | MIC [17]: > 266 µM | MIC [24]: ≥ 266 µM
SMILES: CC[C@H](C)[C@H](NC(=O)[C@H](CC(C)C)NC(=O)[C@H](CCC(=O)O)NC(=O)[C@H](CO)NC(=O)[C@H](CCCN=C(N)N)NC(=O)[C@@H](N)CO)C(=O)N[C@H](C(=O)N[C@@H](CCCN=C(N)N)C(=O)N[C@@H](CCC(N)=O)C(=O)N[C@@H](CCCN=C(N)N)C(=O)N[C@@H](CC(C)C)C(=O)N[C@@H](Cc1ccccc1)C(N)=O)C(C)C [SRSELIVRQRLF]

MIC [25]: 1.19 µM (≈ 2.83 µg/mL) | MIC [26]: 0.842 µM (≈ 2 µg/mL) | MIC [27]: 0.842 µM (≈ 2 µg/mL) | MIC [28]: 1.68 µM (≈ 4 µg/mL)
SMILES: CC[C@H](C)[C@H](N)C(=O)N[C@@H](C)C(=O)N[C@@H](CCCCN)C(=O)N[C@H](C(=O)N[C@@H](C)C(=O)NCC(=O)N[C@@H](CCCCN)C(=O)N[C@H](C(=O)N[C@@H](C)C(=O)N[C@@H](CCCCN)C(=O)N[C@H](C(=O)N[C@@H](C)C(=O)NCC(=O)N[C@@H](CCCCN)C(=O)N[C@H](C(=O)N[C@@H](C)C(=O)N[C@@H](CCCCN)C(=O)N[C@H](C(=O)N[C@@H](C)C(=O)NCC(=O)N[C@@H](CCCCN)C(=O)N[C@H](C(=O)N[C@@H](C)C(=O)N[C@@H](CCCCN)C(N)=O)[C@@H](C)CC)[C@@H](C)CC)[C@@H](C)CC)[C@@H](C)CC)[C@@H](C)CC)[C@@H](C)CC [IAKIAGKIAKIAGKIAKIAGKIAK]

MIC [29]: 5.9 µM (≈ 12.6 µg/mL) | MIC [30]: 2.9 µM (≈ 6.19 µg/mL) | MIC [31]: 23.4 µM (≈ 50 µg/mL) | MIC [32]: 11.7 µM (≈ 25 µg/mL) | MIC [7]: 2.9 µM (≈ 6.19 µg/mL) | MIC [8]: 5.9 µM (≈ 12.6 µg/mL) | MIC [33]: 2.9 µM (≈ 6.19 µg/mL) | MIC [34]: 2.9 µM (≈ 6.19 µg/mL) | MIC [35]: 2.9 µM (≈ 6.19 µg/mL) | MIC [36]: 1.5 µM (≈ 3.2 µg/mL) | MIC [37]: 2.9 µM (≈ 6.19 µg/mL) | MIC [38]: 1.5 µM (≈ 3.2 µg/mL) | MIC [39]: 2.9 µM (≈ 6.19 µg/mL) | MIC [40]: 2.9 µM (≈ 6.19 µg/mL)
SMILES: CC[C@H](C)[C@H](NC(=O)[C@H](CCCCN)NC(=O)[C@@H](NC(=O)[C@H](C)NC(=O)[C@H](CC(C)C)NC(=O)[C@H](CCCCN)NC(=O)[C@H](Cc1ccccc1)NC(=O)[C@H](CC(C)C)NC(=O)[C@H](Cc1cnc[nH]1)NC(=O)CNC(=O)[C@H](Cc1ccccc1)NC(=O)[C@@H](N)Cc1ccccc1)[C@@H](C)O)C(=O)N[C@H](C(=O)N1CCC[C@H]1C(=O)N[C@@H](CO)C(=O)N[C@@H](CC(C)C)C(=O)N[C@@H](Cc1ccccc1)C(=O)N[C@@H](CCCN=C(N)N)C(=O)O)[C@@H](C)CC [FFGHLFKLATKIIPSLFR]

MIC [41]: 7.07 µM (≈ 15.6 µg/mL) | MIC [42]: 7.07 µM (≈ 15.6 µg/mL)
SMILES: CC[C@H](C)[C@H](NC(=O)[C@H](CCCN=C(N)N)NC(=O)[C@H](CCCN=C(N)N)NC(=O)[C@@H]1CCCN1C(=O)[C@@H]1CCCN1C(=O)[C@H](CCCCN)NC(=O)[C@@H]1CCCN1C(=O)[C@H](CCCN=C(N)N)NC(=O)[C@@H]1CCCN1C(=O)[C@H](CC(C)C)NC(=O)[C@H](Cc1ccc(O)cc1)NC(=O)[C@@H]1CCCN1C(=O)[C@@H]1CCCN1C(=O)[C@H](CCCCN)NC(=O)[C@H](CC(=O)O)NC(=O)[C@@H](N)C(C)C)C(=O)N[C@@H](Cc1ccc(O)cc1)C(=O)N[C@@H](CC(N)=O)C(=O)O [VDKPPYLPRPKPPRRIYN]

MIC [43]: 3.1 µM (≈ 6.21 µg/mL) | MIC [44]: 12.5 µM (≈ 25 µg/mL) | MIC [45]: 12.5 µM (≈ 25 µg/mL) | MIC [46]: ≥ 50 µM | MIC [47]: 6.3 µM (≈ 12.6 µg/mL)
SMILES: CC(C)C[C@H](NC(=O)[C@H](C)NC(=O)[C@H](CCCCN)NC(=O)[C@H](CCCCN)NC(=O)[C@H](CCCCN)NC(=O)[C@H](CCCCN)NC(=O)[C@@H](N)CCCCN)C(=O)N[C@@H](Cc1ccccc1)C(=O)N[C@@H](CC(C)C)C(=O)N[C@@H](CCCCN)C(=O)N[C@@H](CC(C)C)C(=O)N[C@@H](Cc1c[nH]c2ccccc12)C(=O)N[C@@H](C)C(=O)N[C@@H](C)C(=O)N[C@@H](Cc1ccccc1)C(=O)N[C@@H](CC(C)C)C(=O)N[C@@H](C)C(N)=O [KKKKKALFLKLWAAFLA]
